Test results: BindingDB's records for doi:10.1016/S0960-894X(01)81027-1 (1993)
Structures can show the parent of a compound that is named as a salt.

target: Sigma non-opioid intracellular receptor 1 (Cavia porcellus) (UniProt Q60492); test: The compound was evaluated for binding affinity against sigma receptor using [3H]DTG radioligand in guinea pig membranes
Sequence (Q60492 whole entry, looked up): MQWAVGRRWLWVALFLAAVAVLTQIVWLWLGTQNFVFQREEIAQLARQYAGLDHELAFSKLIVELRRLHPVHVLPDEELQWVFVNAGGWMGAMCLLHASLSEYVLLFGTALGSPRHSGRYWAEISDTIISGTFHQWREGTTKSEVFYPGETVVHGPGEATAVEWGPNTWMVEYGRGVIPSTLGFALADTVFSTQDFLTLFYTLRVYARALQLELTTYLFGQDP

For `CC(=NC12CC3CC(CC(C3)C1)C2)NC12CC3CC(CC(C3)C1)C2` [N,N'-Di-adamantan-1-yl-acetamidine], which IC50 is on record?
Its IC50 is 0.016 µM.

`CC(=Nc1ccc(Br)cc1C)Nc1ccc(Br)cc1C` [N,N'-Bis-(4-bromo-2-methyl-phenyl)-acetamidine] was tested. Which IC50 did it give?
Its IC50 is 0.026 µM.

With `CC(=NC12CC3CC(CC(C3)C1)C2)NC1CCCCC1` [N-Adamantan-1-yl-N'-cyclohexyl-acetamidine] as the molecule, how does the IC50 read?
Its IC50 is 0.072 µM.

For `CC(=Nc1ccccc1C)NC1CCCCC1` [N-Cyclohexyl-N'-o-tolyl-acetamidine; hydrochloride], which IC50 is on record?
Its IC50 is 0.009 µM.

For `CC(=Nc1ccccc1C)NC1CC2CCC1C2` (configuration not stated) [N-Bicyclo[2.2.1]hept-2-yl-N'-o-tolyl-acetamidine], which IC50 is on record?
Its IC50 is 0.009 µM.

How did the IC50 turn out when `CC(=Nc1ccccc1C)Nc1ccccc1C` [N,N'-Di-o-tolyl-acetamidine; hydrochloride] was run?
Its IC50 is 0.015 µM.

Which IC50 does the source give for `CC(=Nc1ccccc1C)NC12CC3CC(CC(C3)C1)C2` [N-Adamantan-1-yl-N'-o-tolyl-acetamidine; hydrochloride] here?
Its IC50 is 0.006 µM.
